Test [1] addresses T1, MAGL (Homo sapiens, UniProt Q99685).
T1 construct: purchased Finetest (China)
T1 sequence (Q99685 1-303): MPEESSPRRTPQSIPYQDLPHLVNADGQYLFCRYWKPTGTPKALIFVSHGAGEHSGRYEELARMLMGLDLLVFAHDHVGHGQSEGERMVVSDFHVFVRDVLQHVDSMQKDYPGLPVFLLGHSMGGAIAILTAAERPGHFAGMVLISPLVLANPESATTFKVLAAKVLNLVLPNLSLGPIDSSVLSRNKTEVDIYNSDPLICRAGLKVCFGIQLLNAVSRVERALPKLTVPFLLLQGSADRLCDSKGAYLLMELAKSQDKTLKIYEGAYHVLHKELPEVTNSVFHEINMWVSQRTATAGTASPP
Kind of test: biochemical. As for the experimental part: The MAGL inhibitory activity of the synthesized compounds was assessed using a spectrophotometric assay, employing 4-NPA as a surrogate substrate. The experimental procedure was adapted from a previously published protocol with minor modifications.[37]
The assay was conducted at room temperature using an ELISA reader (EMR-500) with a 96-well plate, with a total reaction volume of 200 μL per well. The reaction system comprised 10 mM tris–HCl buffer (pH 7.2), 1 mM EDTA, and 0.1 mg mL^−1 bovine serum albumin. […] The negative control was prepared by replacing the inhibitor with 10 μL of DMSO. The enzymatic reaction was initiated by adding 40 μL of MAGL enzyme solution (11 ng per well), while the blank control used buffer instead of the enzyme. The reaction mixtures were incubated for 30 minutes, and absorbance was measured at 405 nm. Each sample was tested in triplicate, and IC50 values were determined from the obtained data using GraphPad Prism 8.4.3.

Test [2] addresses T2, AChE (Homo sapiens, UniProt P22303).
T2 construct: purchased Sigma-Aldrich (Germany)
In words: AChE inhibition assay (Ellman's method). The format is biochemical. As for the experimental part:
The AChE inhibitory activity of the synthesized compounds was determined using Ellman's method, with slight modifications to optimize experimental conditions.[35] The assay was performed following the procedures described in our previous study.[36]
For orientation: DTNB colorimetry detects thiols as they appear.

[3] abbreviates: 4-NPA 100 μM, 30 min, absorbance 405 nm, triplicate, read-out: IC50 ± SD MAGL.
The mark [4] stands for this setting: Ellman's method, read-out: IC50 ± SD AChE.

Consider 14 molecules from publication PMC12090193, “Flavonoid carbamate hybrids: design, synthesis, and evaluation as multi-target enzyme inhibitors for Alzheimer's disease” (RSC Advances, 2025).

Each structure is given as a SMILES string. Like-named read-outs stand apart in the source and are kept apart here.

T2 sequence (P22303 32-614): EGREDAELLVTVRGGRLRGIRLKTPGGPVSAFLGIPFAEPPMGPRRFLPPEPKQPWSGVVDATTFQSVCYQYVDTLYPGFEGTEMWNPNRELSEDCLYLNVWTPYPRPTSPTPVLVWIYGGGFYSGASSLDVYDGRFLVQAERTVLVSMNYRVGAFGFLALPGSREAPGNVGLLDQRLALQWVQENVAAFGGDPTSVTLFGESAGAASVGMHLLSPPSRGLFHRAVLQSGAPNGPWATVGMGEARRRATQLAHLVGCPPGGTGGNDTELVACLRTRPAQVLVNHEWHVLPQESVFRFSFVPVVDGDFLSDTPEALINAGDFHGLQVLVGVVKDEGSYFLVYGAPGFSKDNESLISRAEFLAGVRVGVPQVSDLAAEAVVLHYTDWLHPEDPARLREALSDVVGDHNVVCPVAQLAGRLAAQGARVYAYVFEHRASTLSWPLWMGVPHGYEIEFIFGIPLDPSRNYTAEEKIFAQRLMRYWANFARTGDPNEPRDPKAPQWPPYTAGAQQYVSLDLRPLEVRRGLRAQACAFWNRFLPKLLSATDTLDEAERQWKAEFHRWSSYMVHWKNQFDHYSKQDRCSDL

Take `O=c1cc(-c2ccccc2)oc2cc(O)cc(O)c12` [Chrysin, reference compound]: the IC50 (in general, the concentration needed to halve the response being measured) in test [1] (setting [3]) was 169 ± 11.4 µM; in test [2] (setting [4]), 157 ± 11.7 µM.
For `CN(C)C(=O)Oc1cc(O)c2c(=O)cc(-c3ccccc3)oc2c1` [Compound C1, 5-Hydroxy-4-oxo-2-phenyl-4H-chromen-7-yl dimethylcarbamate], the concentration for half-maximal inhibition (IC50) in test [1] is 72.2 ± 5.34 µM; in test [2], 188 ± 16.2 µM.
On to `CN(C)C(=O)Oc1cc(OC(=O)N(C)C)c2c(=O)cc(-c3ccccc3)oc2c1` [Compound C2, 4-Oxo-2-phenyl-4H-chromene-5,7-diyl bis(dimethylcarbamate)], for which the half-inhibitory concentration (IC50) in test [1] is 96.4 ± 1.54 µM; in test [2], above 200 µM.
With `CCN(CC)C(=O)Oc1cc(O)c2c(=O)cc(-c3ccccc3)oc2c1` [Compound C3, 5-Hydroxy-4-oxo-2-phenyl-4H-chromen-7-yl diethylcarbamate], the IC50 amounted to 22.9 ± 1.3 µM in test [1] (setting [3]) and 61.8 ± 1.42 µM in test [2] (setting [4]).
The matching figures for `CCN(CC)C(=O)Oc1cc(OC(=O)N(CC)CC)c2c(=O)cc(-c3ccccc3)oc2c1` [Compound C4, 4-Oxo-2-phenyl-4H-chromene-5,7-diyl bis(diethylcarbamate)]: above 200 µM and above 200 µM.
Turning to `CCN(C)C(=O)Oc1cc(O)c2c(=O)cc(-c3ccccc3)oc2c1` [Compound C5, 5-Hydroxy-4-oxo-2-phenyl-4H-chromen-7-yl ethyl(methyl)carbamate], the IC50 in test [1] was determined as 46.6 ± 2.23 µM; in test [2], 89.4 ± 5.66 µM.
Consider `CCN(C)C(=O)Oc1cc(OC(=O)N(C)CC)c2c(=O)cc(-c3ccccc3)oc2c1` [Compound C6, 4-Oxo-2-phenyl-4H-chromene-5,7-diyl bis(ethyl(methyl)carbamate)], for which the concentration for half-maximal inhibition (IC50) in test [1] and in test [2] was above 200 µM throughout.
Regarding `CN(C)C(=O)Oc1ccc(-c2oc3cc(OC(=O)N(C)C)cc(O)c3c(=O)c2OC(=O)N(C)C)cc1` [Compound K1, 2-(4-((Dimethylcarbamoyl)oxy)phenyl)-5-hydroxy-4-oxo-4H-chromene-3,7-diyl bis(dimethylcarbamate)], the values for the half-inhibitory concentration (IC50) in test [1] and in test [2] were 126 ± 8.28 µM and 100 ± 7.85 µM, respectively.
As to `CN(C)C(=O)Oc1ccc(-c2oc3cc(OC(=O)N(C)C)cc(OC(=O)N(C)C)c3c(=O)c2OC(=O)N(C)C)cc1` [Compound K2, 2-(4-((Dimethylcarbamoyl)oxy)phenyl)-4-oxo-4H-chromene-3,5,7-triyl tris(dimethylcarbamate)], the 50% inhibitory concentration (IC50) in test [1] and in test [2] was above 200 µM in each case.
Take `CCN(CC)C(=O)Oc1ccc(-c2oc3cc(OC(=O)N(CC)CC)cc(O)c3c(=O)c2OC(=O)N(CC)CC)cc1` [Compound K3, 2-(4-((Diethylcarbamoyl)oxy)phenyl)-5-hydroxy-4-oxo-4H-chromene-3,7-diyl bis(diethylcarbamate)]: the IC50 worked out at 61.6 ± 3.01 µM in test [1] (setting [3]) and 146 ± 10.4 µM in test [2] (setting [4]).
Regarding `CCN(CC)C(=O)Oc1ccc(-c2oc3cc(OC(=O)N(CC)CC)cc(OC(=O)N(CC)CC)c3c(=O)c2OC(=O)N(CC)CC)cc1` [Compound K4, 2-(4-((Diethylcarbamoyl)oxy)phenyl)-4-oxo-4H-chromene-3,5,7-triyl tris(diethylcarbamate)], the half-maximal inhibitory concentration (IC50) in test [1] (setting [3]) and in test [2] (setting [4]) was above 200 µM throughout.
For the molecule `CCN(C)C(=O)Oc1ccc(-c2oc3cc(OC(=O)N(C)CC)cc(O)c3c(=O)c2OC(=O)N(C)CC)cc1` [Compound K5, 2-(4-((Ethyl(methyl)carbamoyl)oxy)phenyl)-5-hydroxy-4-oxo-4H-chromene-3,7-diyl bis(ethyl(methyl)carbamate)], the IC50 is 60.1 ± 4.74 µM in test [1] and above 200 µM in test [2].
In the case of `CCN(C)C(=O)Oc1ccc(-c2oc3cc(OC(=O)N(C)CC)cc(OC(=O)N(C)CC)c3c(=O)c2OC(=O)N(C)CC)cc1` [Compound K6, 2-(4-((Ethyl(methyl)carbamoyl)oxy)phenyl)-4-oxo-4H-chromene-3,5,7-triyl tris(ethyl(methyl)carbamate)], the IC50 in test [1] is 178 ± 9.12 µM; in test [2] it was above 200 µM.
In the case of `O=c1c(O)c(-c2ccc(O)cc2)oc2cc(O)cc(O)c12` [Kaempferol, reference compound], the IC50 in test [1] (setting [3]) amounted to 189 ± 7.89 µM; in test [2], 226 ± 17.9 µM.
